Results published in US20230391781A1, “MALT1 MODULATORS AND USES THEREOF” (Rheos Medicines, Inc., priority 2020, published 2023).
≈ marks a conversion by molar mass, not a printed value.

Experiments:
[1] = system: IL-2 in Jurkat (ATCC, clone E6.1) cells stimulated with anti-CD3/28/2; assay: Jurkat IL-2 Assay; type: cell-based; settings: Homo sapiens; IL-2 inhibition, Jurkat cells, 30 min compound then anti-CD3/28/2 stimulation for 24 hours; mean value if tested more than once; read-out: IC50
Outline: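 Jurkat E6.1 T cells in RPMI/10% FBS (below passage 25) were preincubated with a compound dose-response for 30 min, then stimulated with soluble anti-CD3/28/2 for 24 h. IL-2 in the supernatant was measured by MSD immunoassay and viability by CellTiter-Glo luminescence. IC50 came from a 4-parameter fit, reported as ranges, with the mean used where tested repeatedly.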

[2] = target: full length MALT1 (Homo sapiens (Human), UniProt Q9UDY8); assay: MALT1 Biochemical Assay; settings: 15 nM enzyme, 30 μM peptide substrate Ac-Leu-Arg-Ser-Arg-Rh110-dPro, 30 min pre-incubation, 60 min reaction; mean value if tested more than once
Outline: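 Full-length human MALT1 was pre-incubated with compound for 30 min, then cleaved a fluorogenic peptide for 60 min in 50 mM Hepes pH 7.5 with 0.8 M sodium citrate and 1 mM DTT. The reaction was quenched with 10 mM iodoacetate and fluorescence was read at 485/520 nm. IC50 came from four-parameter logistic fits of percent inhibition.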

[3] = Thermodynamic Solubility (Ts) Assay in Fasted State Simulated Intestinal Fluid (FaSSIF); type: physicochemical; settings: thermodynamic from solid, FaSSIF pH 6.5, shake flask, 25° C., HPLC-UV
Protocol: The solubilities of various compounds of formula (I) were determined using a thermodynamic solubility assay. The thermodynamic solubility assay employed the shake flask method followed by HPLC-UV analysis. The following stepwise procedure was followed:
Samples of no less than 2.0 mg were weighed into the lower chambers of Whatman mini-uniprep vials (catalog number UN203NPUORG) and 450 μL of FaSSIF media (0.056% (w/v) lecithin, 0.161% (w/v) sodium taurocholate, 0.39% (w/v) monobasic potassium phosphate, 0.77% (w/v) potassium chloride, deionized H2O, pH 6.5) was added into each vial.
After the buffer was added, the filter pistons of the mini-uniprep vials were placed to the position of the liquid level to ensure the full contact of buffer and compound with the filter during the incubation.
The samples were then vortexed for 2 minutes, after which they were incubated at 25° C. with shaking (880 rpm) for 24 hours.
The samples were then centrifuged at 4000 rpm (20° C.) for 10 min.
The miniunipreps were then compressed to prepare filtrates, and the test concentration of the compound in the filtrate was determined using HPLC-UV (Waters XBridge C18, 4.6*100 mm column; mobile phase A: 0.1% TFA in H2O; mobile phase B: 0.1% TFA in acetonitrile). At least 5 UV standard solutions (e.g. amiodarone hydrochloride, carbamazepine, dexamethasone) were injected into the HPLC from low to high concentration subsequently followed by testing of the thermodynamic solubility supernatants in duplicate. The solubilities of the tested compounds are given in μg/mL.

[4] = High Throughput Dialysis (HTD) Human Plasma Protein Binding Assay; type: in vitro ADME; settings: pooled human plasma, pH 7.4, equilibrium dialysis, 37° C., read-out: Human PPB (% Unbound)
Protocol: Human plasma protein binding of various compounds of formula (I) were evaluated using the equilibrium dialysis method described herein.
The dialysis membrane strips (HTD % a/b, catalog number 1101, HTDialysis LLC, Gales Ferry, CT, USA) were soaked in ultra-pure water at room temperature for approximately 1 hour. Each membrane strip containing 2 membranes was separated and soaked in 20:80 ethanol/water (v/v) for approximately 20 minutes, after which they were ready for use or were stored in the solution at 2-8° C. for up to a month. Prior to the experiment, the membrane was rinsed three times and soaked for 20 minutes in ultra-pure water.
On the day of experiment, the human plasma (BiolVT, catalog number […], sodium heparin or EDTA-K2 anticoagulant, multiple individuals pooled) was thawed by running under cold tap water and centrifuged at 3220 rpm for 5 minutes to remove any clots. The pH value of the resulting plasma was confirmed to be 7.0-8.0.
The test compounds and warfarin control (Stru Chem, catalog number SC-16139) were dissolved in dimethyl sulfoxide (DMSO) to obtain 10 mM stock solutions. DMSO working solutions were prepared at 400 μM. To prepare the loading matrix, the compound working solutions (5 μL) were added in a 1:200 ratio to blank human plasma (995 μL) and mixed thoroughly.
The time zero (T0) samples to be used for recovery determination were prepared as follows: 50 μL aliquots of loading matrix were transferred in triplicate to the sample collection plate. The samples were immediately matched with opposite blank buffer (basic solution (14.2 g/L Na2HPO4 and 8.77 g/L NaCl in deionized water) titrated with acidic solution (15.6 g/L NaH2PO4·2H2O and 8.77 g/L NaCl in deionized water) to pH 7.4±0.1) to obtain a final volume of 100 μL of 1:1 matrix/dialysis buffer (v/v) in each well. 500 μL stop solution (200 ng/mL tolbutamide and 200 ng/mL labetalol in acetonitrile) were added to these TO samples. They were then stored at 2-8° C. for further processing along with other post-dialysis samples.
To load the dialysis device (96-well equilibrium dialysis plate, model 96b, catalog number 1006. HTDialysis LLC, Gales Ferry, CT, USA), an aliquot of 150 μL of the loading matrix was transferred to the donor side of each dialysis well in triplicate, and 150 μL of the dialysis buffer was loaded to the receiver side of the well. The dialysis plate was placed in a humidified incubator at 37° C. with 5% CO2 on a shaking platform that rotated slowly (about 100 rpm) for 4 hours.
At the end of the dialysis, aliquots of 50 μL of the samples were taken from both the buffer side and the matrix side of the dialysis device. These samples were transferred into new 96-well plates (polypropylene, 2.2 mL/well, catalog number DWP-22-96-SQ-U-C-L. Apricot). Each sample was mixed with an equal volume of opposite blank matrix (buffer or matrix) to reach a final volume of 100 μL of 1:1 matrix/dialysis buffer (v/v) in each well. All samples were further processed by adding 500 μL of stop solution containing internal standards. The mixture was vortexed and centrifuged at 4000 rpm for about 20 minutes. An aliquot of 100 μL of supernatant of all the samples was then removed for LC-MS/MS analysis. Test compound concentrations in matrix and buffer samples were expressed as peak area ratios (PAR) of analyte/internal standard (no standard curve).
The single blank samples were prepared by transferring 50 μL of blank matrix to a 96 well plate (polypropylene. 2.2 mL/well, catalog number DWP-22-96-SQ-U-C-L, Apricot) and adding 50 μL of blank PBS buffer to each well. The blank plasma must match the species of plasma used in the plasma side of the well. Then the matrix-matched samples were further processed by adding 500 μL of stop solution containing internal standards, following the same sample processing method as the dialysis samples. […]

Chain of full length MALT1 (Q9UDY8 whole entry): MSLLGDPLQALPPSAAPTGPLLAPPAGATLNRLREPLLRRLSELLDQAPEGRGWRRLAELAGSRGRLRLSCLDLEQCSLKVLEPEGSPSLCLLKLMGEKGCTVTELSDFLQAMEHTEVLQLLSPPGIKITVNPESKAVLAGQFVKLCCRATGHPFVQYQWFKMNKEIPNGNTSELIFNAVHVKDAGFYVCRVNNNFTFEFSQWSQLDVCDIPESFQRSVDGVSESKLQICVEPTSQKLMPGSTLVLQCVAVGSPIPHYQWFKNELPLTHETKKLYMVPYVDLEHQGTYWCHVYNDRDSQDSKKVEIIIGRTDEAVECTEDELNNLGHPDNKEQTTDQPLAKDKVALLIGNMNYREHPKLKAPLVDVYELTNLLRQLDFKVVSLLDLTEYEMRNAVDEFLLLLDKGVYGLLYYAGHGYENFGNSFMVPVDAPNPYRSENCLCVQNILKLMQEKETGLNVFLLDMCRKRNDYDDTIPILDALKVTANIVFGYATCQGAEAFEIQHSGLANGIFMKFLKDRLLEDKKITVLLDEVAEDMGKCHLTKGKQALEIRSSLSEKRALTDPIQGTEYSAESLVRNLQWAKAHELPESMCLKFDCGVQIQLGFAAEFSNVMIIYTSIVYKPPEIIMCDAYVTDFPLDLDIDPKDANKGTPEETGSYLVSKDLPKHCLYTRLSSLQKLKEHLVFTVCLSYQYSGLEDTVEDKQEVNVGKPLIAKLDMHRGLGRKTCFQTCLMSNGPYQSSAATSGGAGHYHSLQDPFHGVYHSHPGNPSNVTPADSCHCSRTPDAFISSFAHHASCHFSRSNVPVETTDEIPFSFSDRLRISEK

SMILES	IC50 [1] [nM]	IC50 [2] [nM]	solubility at 24 h [3] [µg/mL]	fraction unbound at 4 h, 2 µM [4]
CO[C@@H](C)c1c(Nc2ccc([C@H](N(C)C(=O)[C@H]3CC[C@H](C(=O)O)CC3)C(F)(F)F)cc2)cnc2nc(Cl)nn12 [Compound 7.1, (1S,4r)-4-(((S)-1-(4-((2-chloro-7-((S)-1-methoxyethyl)-[1,2,4]triazolo[1,5-a]pyrimidin-6-yl)amino)phenyl)-2,2,2-trifluoroethyl)(methyl)carbamoyl)cyclohexane-1-carboxylic acid]	> 1000	100 to 1000	> 1750	0.08 to 0.2
CO[C@@H](C)c1c(Nc2ccc([C@H](N(C)C(=O)[C@H]3C[C@H](c4nnn[nH]4)C3)C(F)(F)F)cc2)cnc2nc(Cl)nn12 [Compound 9.1, (1r,3S)—N—((S)-1-(4-((2-chloro-7-((S)-1-methoxyethyl)-[1,2,4]triazolo[1,5-a]pyrimidin-6-yl)amino)phenyl)-2,2,2-trifluoroethyl)-N-methyl-3-(1H-tetrazol-5-yl)cyclobutane-1-carboxamide]	> 1000	< 100	> 1750	< 0.08

More lines, now with the values ahead:

IC50 [1] [nM]	IC50 [2] [nM]	solubility at 24 h [3] [µg/mL]	fraction unbound at 4 h, 2 µM [4]	SMILES
100 to 1000	100 to 1000	250 to 1750 (≈ 430 to 3010 µM)	0.08 to 0.2	CNC(=O)[C@H]1CC[C@H](C(=O)N(C)[C@@H](c2ccc(Nc3cnc4nc(Cl)nn4c3[C@H](C)OC)cc2)C(F)(F)F)CC1 [Compound 8.2, (1r,4S)—N1-((S)-1-(4-((2-chloro-7-((S)-1-methoxyethyl)-[1,2,4]triazolo[1,5-a]pyrimidin-6-yl)amino)phenyl)-2,2,2-trifluoroethyl)-N1,N4-dimethylcyclohexane-1,4-dicarboxamide]
100 to 1000	100 to 1000	250 to 1750 (≈ 419 to 2940 µM)	0.08 to 0.2	CO[C@@H](C)c1c(Nc2ccc([C@H](N(C)C(=O)[C@H]3CC[C@H](C(=O)N(C)C)CC3)C(F)(F)F)cc2)cnc2nc(Cl)nn12 [Compound 8.3, (1r,4S)—N1-((S)-1-(4-((2-chloro-7-((S)-1-methoxyethyl)-[1,2,4]triazolo[1,5-a]pyrimidin-6-yl)amino)phenyl)-2,2,2-trifluoroethyl)-N1,N4,N4-trimethylcyclohexane-1,4-dicarboxamide]
100 to 1000	< 100	250 to 1750 (≈ 440 to 3080 µM)	0.08 to 0.2	CO[C@H](C)c1c(Nc2ccc([C@H](N(C)C(=O)C3CCN(C(C)=O)CC3)C(F)(F)F)cc2)cnc2nc(Cl)nn12 [Compound 11.1, 1-acetyl-N—((S)-1-(4-((2-chloro-7-((R)-1-methoxyethyl)-[1,2,4]triazolo[1,5-a]pyrimidin-6-yl)amino)phenyl)-2,2,2-trifluoroethyl)-N-methylpiperidine-4-carboxamide]
